{
  "source": "paper PMC11672294",
  "about": "“The Antipsychotic Drug Aripiprazole Suppresses Colorectal Cancer by Targeting LAMP2a to Induce RNH1/miR‐99a/mTOR‐Mediated Autophagy and Apoptosis” (Advanced Science, 2024)",
  "note": "Counter-ions that a name gives are not always drawn.",
  "data": [
    {"test_system": "HT29", "conditions": "72 h, relative to DMSO, 10 µM, Relative cell viability (%)", "method_in_brief": "(§1)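 HT29 viability used WST-1 reduction (2 h, 37 °C, A450) after 72 h of treatment; screening compounds were tested singly at 10 µM, with dimethyl sulfoxide as the comparison.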", "units": {"Relative cell viability (%)": "%"}, "values": [
      {"smiles": "Cc1c(-c2ccc(O)cc2)n(Cc2ccc(OCCN3CCCCCC3)cc2)c2ccc(O)cc12", "note": "[Bazedoxifene Acetate]", "Relative cell viability (%)": 88.41},
      {"smiles": "O=C(O)Cc1ccccc1Nc1c(Cl)cccc1Cl", "note": "[Diclofenac Sodium]", "Relative cell viability (%)": 111.9},
      {"smiles": "CC(C)NCC(O)COc1ccc(CCOCC2CC2)cc1", "note": "(stereo not shown) [Betaxolol]", "Relative cell viability (%)": 109.6}
    ]},
    {"test_system": "HT29", "conditions": "72 h, relative to DMSO; 10 µM", "method_in_brief": "as §1", "units": {"Relative cell viability (%)": "%"}, "values": [
      {"smiles": "CC(C)C(=O)Oc1ccc(CO)cc1[C@H](CCN(C(C)C)C(C)C)c1ccccc1", "note": "[Fesoterodine Fumarate]", "Relative cell viability (%)": 112.6},
      {"smiles": "CC[C@@H]1/C=C(\\C)C[C@H](C)C[C@H](OC)[C@H]2O[C@@](O)(C(=O)C(=O)N3CCCC[C@H]3C(=O)O[C@H](/C(C)=C/[C@@H]3CC[C@H](Cl)[C@H](OC)C3)[C@H](C)[C@@H](O)CC1=O)[C@H](C)C[C@@H]2OC", "note": "[Pimecrolimus]", "Relative cell viability (%)": 64.96},
      {"smiles": "FC(F)(F)c1ccc(/C=C/c2nc(COc3ccc(CCCCn4ccnn4)cc3)co2)cc1", "note": "[Mubritinib (TAK 165)]", "Relative cell viability (%)": 116.7},
      {"smiles": "CC(C)(C)NCC(O)COc1cccc2c1CCC(=O)N2", "note": "(stereo not shown) [Carteolol HCl]", "Relative cell viability (%)": 86.67},
      {"smiles": "COc1ccccc1N1CCN(CC(O)COc2cccc3ccccc23)CC1", "note": "(stereo not shown) [Naftopidil]", "Relative cell viability (%)": 100.8},
      {"smiles": "COc1cccc2c1C(=O)c1c(O)c3c(c(O)c1C2=O)C[C@@](O)(C(C)=O)C[C@@H]3O[C@H]1C[C@H](N)[C@H](O)[C@H](C)O1", "note": "[Daunorubicin HCl]", "Relative cell viability (%)": 12.62},
      {"smiles": "[H]/N=C(\\N/C(=N/[H])NCCCCCCNC(=N)NC(=N)Nc1ccc(Cl)cc1)Nc1ccc(Cl)cc1", "note": "[Chlorhexidine HCl]", "Relative cell viability (%)": 28.64},
      {"smiles": "Cc1cc(Nc2cc(CN3CCOCC3)c3nc(C)c(Cc4ccc(Cl)cc4F)n3n2)n[nH]1", "note": "[LY2784544]", "Relative cell viability (%)": 102.6},
      {"smiles": "CCCOc1ccc(C(=O)OCCN(CC)CC)cc1N", "note": "[Proparacaine HCl]", "Relative cell viability (%)": 89.41},
      {"smiles": "CNC(=O)[C@H](Cc1ccccc1)NC(=O)[C@H](CC(C)C)[C@H](CSc1cccs1)C(=O)NO", "note": "[Batimastat (BB-94)]", "Relative cell viability (%)": 103.4},
      {"smiles": "O=C(c1ccc(OCCN2CCCCC2)cc1)c1c(-c2ccc(O)cc2)sc2cc(O)ccc12", "note": "[Raloxifene HCl]", "Relative cell viability (%)": 36.92},
      {"smiles": "CCNC1(C(N)=O)CCN(c2ncnc3c2nc(-c2ccccc2Cl)n3-c2ccc(Cl)cc2)CC1", "note": "[Otenabant (CP-945598) HCl]", "Relative cell viability (%)": 70.09},
      {"smiles": "C[C@@H](CN1CC(=O)NC(=O)C1)N1CC(=O)NC(=O)C1", "note": "[Dexrazoxane HCl (ICRF-187, ADR-529)]", "Relative cell viability (%)": 75.86},
      {"smiles": "CCCCCCCC(=O)N[C@H](CN1CCCC1)[C@H](O)c1ccc2c(c1)OCCO2", "note": "[Eliglustat Tartrate]", "Relative cell viability (%)": 81.62},
      {"smiles": "Cc1cnc(NC(=O)C2=C(O)c3ccccc3S(=O)(=O)N2C)s1", "note": "[Meloxicam]", "Relative cell viability (%)": 51.27},
      {"smiles": "Cc1cccc(C(C)c2cnc[nH]2)c1C", "note": "(stereo not shown) [Medetomidine HCl]", "Relative cell viability (%)": 57.77},
      {"smiles": "Cc1ccnc2c1NC(=O)c1cccnc1N2C1CC1", "note": "[Nevirapine]", "Relative cell viability (%)": 94.49},
      {"smiles": "NC(=O)c1cnccn1", "note": "[Pyrazinamide]", "Relative cell viability (%)": 83.05},
      {"smiles": "CO/N=C(\\C(=O)N[C@@H]1C(=O)N2C(C(=O)OCOC(=O)C(C)(C)C)=C(/C=C\\c3scnc3C)CS[C@H]12)c1csc(N)n1", "note": "[Cefditoren Pivoxil]", "Relative cell viability (%)": 66.53},
      {"smiles": "C[C@@H]1COC(Nc2ccc3ncnc(Nc4ccc(OCc5nccs5)c(Cl)c4)c3c2)=N1", "note": "[Varlitinib]", "Relative cell viability (%)": 111.6},
      {"smiles": "Cc1ccc([C@@H]2O[C@H](CO)[C@@H](O)[C@H](O)[C@H]2O)cc1Cc1ccc(-c2ccc(F)cc2)s1", "note": "[Canagliflozin]", "Relative cell viability (%)": 72.33},
      {"smiles": "CC(C)[C@H](N)C(=O)OCCOCn1cnc2c(=O)[nH]c(N)nc21", "note": "[Valaciclovir HCl]", "Relative cell viability (%)": 85.59},
      {"smiles": "O=c1c(-c2ccc(O)cc2)coc2cc(O)cc(O)c12", "note": "[Genistein]", "Relative cell viability (%)": 102.3},
      {"smiles": "COc1cccc(-c2ccc(NC(=O)C3=C(C(=O)O)CCC3)c(F)c2)c1", "note": "[Vidofludimus]", "Relative cell viability (%)": 104.7},
      {"smiles": "CCc1cccc2c3c([nH]c12)C(CC)(CC(=O)O)OCC3", "note": "(stereo not shown) [Etodolac]", "Relative cell viability (%)": 86.76},
      {"smiles": "CC[C@H](Nc1ncnc2[nH]cnc12)c1nc2cccc(F)c2c(=O)n1-c1ccccc1", "note": "[CAL-101 (Idelalisib, GS-1101)]", "Relative cell viability (%)": 112.6},
      {"smiles": "CNC(=O)[C@H](Cc1c[nH]c2ccccc12)NC(=O)[C@@H](CC(=O)NO)CC(C)C", "note": "[Ilomastat (GM6001, Galardin)]", "Relative cell viability (%)": 95.73},
      {"smiles": "NC(=O)N1CCC(CC(=O)N2CCC([C@H]3c4ncc(Br)cc4CCc4cc(Cl)cc(Br)c43)CC2)CC1", "note": "[Lonafarnib]", "Relative cell viability (%)": 95.63},
      {"smiles": "CC(C(=O)O)c1ccc2c(c1)Cc1cccnc1O2", "note": "(stereo not shown) [Pranoprofen]", "Relative cell viability (%)": 135},
      {"smiles": "CCN1CCN(C(=O)N[C@@H](C(=O)N[C@@H]2C(=O)N3[C@@H]2SC(C)(C)[C@@H]3C(=O)O)c2ccccc2)C(=O)C1=O", "note": "[Piperacillin Sodium]", "Relative cell viability (%)": 73.94},
      {"smiles": "CCC1(C)CC(=O)NC(=O)C1", "note": "[Bemegride]", "Relative cell viability (%)": 88.48},
      {"smiles": "CCN(CC)CCNC(=O)c1c(C)[nH]c(/C=C2\\C(=O)Nc3ccc(F)cc32)c1C", "note": "[Sunitinib]", "Relative cell viability (%)": 29.06},
      {"smiles": "Cc1c(F)cc(C(=O)NC2CC2)cc1-c1ccc(C(=O)NCC(C)(C)C)cn1", "note": "[Losmapimod (GW856553X)]", "Relative cell viability (%)": 94.44},
      {"smiles": "Nc1nnc(-c2cccc(Cl)c2Cl)c(N)n1", "note": "[Lamotrigine]", "Relative cell viability (%)": 100},
      {"smiles": "CN(C(=O)c1ccc(F)cc1C(F)(F)F)C1CCN(c2nnc(-c3ccnn3C)c3ccccc23)CC1", "note": "[Taladegib (LY2940680)]", "Relative cell viability (%)": 105.5},
      {"smiles": "N=C(N)c1ccc2cc(OC(=O)c3ccc(N=C(N)N)cc3)ccc2c1", "note": "[Nafamostat Mesylate]", "Relative cell viability (%)": 66.51},
      {"smiles": "C[C@H](Nc1ncnc2[nH]cnc12)c1cc2cccc(Cl)c2c(=O)n1-c1ccccc1", "note": "[IPI-145 (INK1197)]", "Relative cell viability (%)": 79.06},
      {"smiles": "O=C(C[S+]([O-])Cc1ccco1)NC/C=C\\COc1cc(CN2CCCCC2)ccn1", "note": "(stereo not shown) [Lafutidine]", "Relative cell viability (%)": 119.6},
      {"smiles": "CCCCCCCCCCCC[N+](C)(C)CCOc1ccccc1", "note": "[Domiphen Bromide]", "Relative cell viability (%)": 82.12},
      {"smiles": "C[C@]12C=CC(=O)C=C1CC[C@H]1[C@@H]3C[C@@H](O)[C@](O)(C(=O)CO)[C@@]3(C)C[C@H](O)[C@@]12F", "note": "[Triamcinolone]", "Relative cell viability (%)": 171.8},
      {"smiles": "Cc1cccc(CN2CCN(C(c3ccccc3)c3ccc(Cl)cc3)CC2)c1", "note": "(stereo not shown) [Meclizine 2HCl]", "Relative cell viability (%)": 130.4},
      {"smiles": "O=C(O)C[C@H](O)C[C@H](O)/C=C/c1c(C2CC2)nc2ccccc2c1-c1ccc(F)cc1", "note": "[Pitavastatin Calcium]", "Relative cell viability (%)": 44.92},
      {"smiles": "Nc1ncnc2c1ncn2[C@@H]1O[C@H](CO)[C@@H](O)[C@@H]1O", "note": "[Vidarabine]", "Relative cell viability (%)": 74.15},
      {"smiles": "COc1cc2ncnc(Nc3ccc(F)c(Cl)c3)c2cc1NC(=O)/C=C/CN1CCCCC1", "note": "[Dacomitinib (PF299804, PF299)]", "Relative cell viability (%)": 11.17},
      {"smiles": "CCN(CC)CCOC(=O)C(c1ccccc1)c1ccccc1", "note": "[Adiphenine HCl]", "Relative cell viability (%)": 119.6},
      {"smiles": "CC(C)(Sc1cc(C(C)(C)C)c(O)c(C(C)(C)C)c1)Sc1cc(C(C)(C)C)c(O)c(C(C)(C)C)c1", "note": "[Probucol]", "Relative cell viability (%)": 130.3}
    ]}
  ]
}
